Measurements from publication PMC8998350, “The Evidence for Effective Inhibition of INa Produced by Mirogabalin ((1R,5S,6S)-6-(aminomethyl)-3-ethyl-bicyclo [3.2.0] hept-3-ene-6-acetic acid), a Known Blocker of CaV Channels” (International Journal of Molecular Sciences, 2022).

Test system: T1, voltage-gated Na+ (NaV) channel
T1 construct: native channels of pituitary GH3 cells, isoform not resolved
Assay: whole-cell patch clamp of native late INa in GH3 cells
Format: cell-based

CCC1=C[C@@H]2[C@H](C1)C[C@]2(CN)CC(=O)O [MGB, (1R,5S,6S)-6-(aminomethyl)-3-ethyl-bicyclo [3.2.0] hept-3-ene-6-acetic acid]
IC50: 7.3 µM
